According to patent publication US20130142882A1, “METHODS AND COMPOSITIONS FOR TREATMENT, MODIFICATION AND MANAGEMENT OF BONE CANCER PAIN” (GOLDEN BIOTECHNOLOGY CORPORATION, priority 2011, published 2013):

System: rat model of bone cancer pain (Walker 256 rat mammary gland carcinoma cells injected into the right tibia)
Assay: Mechanical allodynia (Von Frey test) in a rat model of bone cancer pain
Format: in vivo, Rat (Sprague-Dawley)
Conditions: 30 μg/kg s.c. every second day
Experimental: The objective of this study was to assess the potential anti-nociceptive and anti-tumourigenic effects of Compound 1, at doses of 15, 30 and 45 mg/kg, in an animal model of bone cancer pain. Metastasis of cancer cells to the bone was modeled by injecting Walker 256 rat mammary gland carcinoma cells into the medullary cavity of the right tibia (Mao-Yinga, et al. A rat model of bone cancer pain induced by intra-tibia inoculation of Walker 256 mammary gland carcinoma cells. Biochem Biophys Res Commun 2006; 345: 1292-1298). The development of mechanical allodynia was monitored using an established behavioural test (Von Frey test). Treatment administration was chronic, from the day of surgery, and administered twice daily for 21 days to determine whether there was a prophylactic effect on the development of mechanical allodynia. Zoledronic acid was used as a reference substance. No regulatory test guidelines were applicable to this study.
Rats have been studied in this model of bone cancer pain. The route of administration of Compound 1 and vehicle was oral. The doses of Compound 1 were 15, 30 and 45 mg/kg, twice a day (approximately 10 h apart) for 21 days.
The dose of zoledronic acid was 30 μg/kg, as a single administration, every second day from the day of surgery, based on historical data. The route of administration of zoledronic acid was subcutaneous.
The dose volume for test substance and vehicle treatments was 5 mL/kg. The vehicle for Compound 1 was corn oil. Each rat allocated to test substance or vehicle treatments received an oral dose, by gavage, twice daily (approximately 8 am and 6 pm) for 21 consecutive days. The dose volume for the reference substance treatment was 1 mL/kg. Each rat allocated to reference substance treatment received a single subcutaneous dose, by injection (approximately 8 am) every second day from the day of surgery.
Cell preparation. Walker 256 rat mammary gland carcinoma cells (obtained from the American Type Culture Collection (ATCC)) were harvested from sub-confluent cultures growing in vitro and the number of viable cells determined. Cells were then re-suspended in sterile phosphate buffered saline (PBS) at a concentration of 4×10^5 cells. Female Sprague-Dawley rats were intratibially injected in the right leg with 4×10^5 Walker 256 rat mammary gland carcinoma cells in a volume of 6 μL as detailed in Surgical procedure below.
Baseline behavioural testing. The rats were moved to the procedure room 5 days prior to behavioural testing. The rats were then housed, dosed and observed in the procedure room. The behavioural test was performed on all rats on 2 separate occasions prior to surgery, to establish baseline values. Pre-surgery baseline values were taken as the data from the final (second) day of testing (the data from the first day of testing was not included but classed as part of the acclimatisation).
Mechanical allodynia (Von Frey test): Each animal was placed in a wire mesh cage and a series of Von Frey filaments were applied to the plantar surface of the hind paw, from below. The filaments were applied in ascending order (starting with the weakest force), and the withdrawal threshold for both the left and right hind paws were evaluated. Each filament was indented on the mid-plantar surface of the foot to the point where it just started to bend; this was repeated approximately 8 to 10 times per filament at a frequency of approximately 1 Hz. The withdrawal threshold was defined as the lowest force of two or more consecutive Von Frey filaments to elicit a reflex withdrawal response (i.e. a brief paw flick).
Surgical procedure. The animals were surgically prepared over 2 days. Each rat was anaesthetised as necessary with isofluorane in […]. The surface around the incision site was shaved and sterilised. Under aseptic conditions, an incision was made in the skin over the top of the right tibia to expose the tibia head with minimal damage. […]

Structure (SMILES): O=P(O)(O)C(O)(Cn1ccnc1)P(=O)(O)O [Zoledronic acid, reference compound]
- Withdrawal Threshold (Log 10 (force (g) × 10 000)) on Day Post-Operative (Day 6, left paw): 5.35 Log 10 (force (g) × 10 000)
- Withdrawal threshold (g) on day post-operative (Day 6, left paw): 22.55 g
- Withdrawal Threshold (Log 10 (force (g) × 10 000)) on Day Post-Operative (Day 6, right paw): 5.28 Log 10 (force (g) × 10 000)
- Withdrawal threshold (g) on day post-operative (Day 6, right paw): 19.49 g
- Withdrawal Threshold (Log 10 (force (g) × 10 000)) on Day Post-Operative (Day 12, left paw): 5.17 Log 10 (force (g) × 10 000)
- Withdrawal threshold (g) on day post-operative (Day 12, left paw): 15.14 g
- Withdrawal Threshold (Log 10 (force (g) × 10 000)) on Day Post-Operative (Day 12, right paw): 4.98 Log 10 (force (g) × 10 000)
- Withdrawal threshold (g) on day post-operative (Day 12, right paw): 9.95 g
- Withdrawal Threshold (Log 10 (force (g) × 10 000)) on Day Post-Operative (Day 14, left paw): 5.15 Log 10 (force (g) × 10 000)
- Withdrawal threshold (g) on day post-operative (Day 14, left paw): 15.02 g
- Withdrawal Threshold (Log 10 (force (g) × 10 000)) on Day Post-Operative (Day 14, right paw): 4.99 Log 10 (force (g) × 10 000)
- Withdrawal threshold (g) on day post-operative (Day 14, right paw): 10.28 g
- Withdrawal Threshold (Log 10 (force (g) × 10 000)) on Day Post-Operative (Day 19, left paw): 5.14 Log 10 (force (g) × 10 000)
- Withdrawal threshold (g) on day post-operative (Day 19, left paw): 14.66 g
- Withdrawal Threshold (Log 10 (force (g) × 10 000)) on Day Post-Operative (Day 19, right paw): 4.97 Log 10 (force (g) × 10 000)
- Withdrawal threshold (g) on day post-operative (Day 19, right paw): 10.37 g
- Withdrawal Threshold (Log 10 (force (g) × 10 000)) on Day Post-Operative (Day 21, left paw): 5.15 Log 10 (force (g) × 10 000)
- Withdrawal threshold (g) on day post-operative (Day 21, left paw): 15.46 g
- Withdrawal threshold (g) on day post-operative (Day 21, left paw, listed as zoledronic acid): 15.46 ± 2.06 g
- Withdrawal Threshold (Log 10 (force (g) × 10 000)) on Day Post-Operative (Day 21, right paw): 5.04 Log 10 (force (g) × 10 000)
- Withdrawal threshold (g) on day post-operative (Day 21, right paw): 13.25 g
- Withdrawal threshold (g) on day post-operative (Day 21, right paw, listed as zoledronic acid): 13.25 ± 2.28 g
- Withdrawal Threshold (Log 10 (force (g) × 10 000)) on Day Post-Operative (Pre-Surgery, left paw): 5.32 Log 10 (force (g) × 10 000)
- Withdrawal threshold (g) on day post-operative (Pre-Surgery, left paw): 21.02 g
- Withdrawal Threshold (Log 10 (force (g) × 10 000)) on Day Post-Operative (Pre-Surgery, right paw): 5.30 Log 10 (force (g) × 10 000)
- Withdrawal threshold (g) on day post-operative (Pre-Surgery, right paw): 20.26 g
